ChEMBL document CHEMBL1743141, “Membrane transporters in drug development” (Nat Rev Drug Discov, 2010)
Peptide text beside a SMILES is read from it.

Legend:
Assay type in all cases: ADME
[1] = target: T1, Solute carrier organic anion transporter family member 1A2 (Homo sapiens, UniProt P46721); assay: Inhibitors of transporters of clinical importance in the absorption and disposition of drugs, OATP1A2
T1 sequence (P46721 whole entry): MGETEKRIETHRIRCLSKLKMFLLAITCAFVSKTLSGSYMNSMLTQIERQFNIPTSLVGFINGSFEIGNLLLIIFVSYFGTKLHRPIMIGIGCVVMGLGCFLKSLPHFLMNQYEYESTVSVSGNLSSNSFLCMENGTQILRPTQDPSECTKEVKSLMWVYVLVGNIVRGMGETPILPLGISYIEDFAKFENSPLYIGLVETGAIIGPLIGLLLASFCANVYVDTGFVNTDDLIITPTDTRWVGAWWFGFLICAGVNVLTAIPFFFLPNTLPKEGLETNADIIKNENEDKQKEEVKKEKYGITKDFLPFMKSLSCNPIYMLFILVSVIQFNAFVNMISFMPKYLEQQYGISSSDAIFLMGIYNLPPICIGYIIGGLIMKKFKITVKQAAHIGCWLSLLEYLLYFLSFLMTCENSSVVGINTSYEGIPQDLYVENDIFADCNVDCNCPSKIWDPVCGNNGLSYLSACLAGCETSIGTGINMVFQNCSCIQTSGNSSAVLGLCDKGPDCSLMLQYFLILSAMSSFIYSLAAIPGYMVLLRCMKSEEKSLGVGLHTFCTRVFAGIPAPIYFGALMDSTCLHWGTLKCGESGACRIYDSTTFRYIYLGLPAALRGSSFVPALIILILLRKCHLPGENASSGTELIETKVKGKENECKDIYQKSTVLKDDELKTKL

[2] = target: T2, Solute carrier organic anion transporter family member 1B1 (Homo sapiens, UniProt Q9Y6L6); assay: Inhibitors of transporters of clinical importance in the absorption and disposition of drugs, OATP1B1
T2 sequence (Q9Y6L6 whole entry): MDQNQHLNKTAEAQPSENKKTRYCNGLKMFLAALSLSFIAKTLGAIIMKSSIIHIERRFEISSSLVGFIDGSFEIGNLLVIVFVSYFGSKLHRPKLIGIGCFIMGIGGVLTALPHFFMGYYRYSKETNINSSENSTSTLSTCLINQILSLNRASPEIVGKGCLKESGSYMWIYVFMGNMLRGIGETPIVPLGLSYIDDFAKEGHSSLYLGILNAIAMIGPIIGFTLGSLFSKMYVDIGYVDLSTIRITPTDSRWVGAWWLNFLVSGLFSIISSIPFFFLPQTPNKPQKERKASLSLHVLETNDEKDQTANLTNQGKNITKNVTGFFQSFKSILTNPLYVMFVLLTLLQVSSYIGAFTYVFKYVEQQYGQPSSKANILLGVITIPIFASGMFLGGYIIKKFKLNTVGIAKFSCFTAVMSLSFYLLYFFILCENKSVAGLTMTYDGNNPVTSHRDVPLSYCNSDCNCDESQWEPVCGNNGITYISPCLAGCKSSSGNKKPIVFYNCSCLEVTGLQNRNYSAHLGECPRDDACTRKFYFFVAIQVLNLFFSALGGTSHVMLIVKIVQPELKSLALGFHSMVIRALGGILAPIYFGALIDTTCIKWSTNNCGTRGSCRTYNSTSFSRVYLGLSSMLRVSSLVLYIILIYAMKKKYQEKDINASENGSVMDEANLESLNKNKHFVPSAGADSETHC

[3] = target: T3, Solute carrier organic anion transporter family member 2B1 (Homo sapiens, UniProt O94956); assay: Inhibitors of transporters of clinical importance in the absorption and disposition of drugs, OATP2B1
T3 sequence (O94956 whole entry): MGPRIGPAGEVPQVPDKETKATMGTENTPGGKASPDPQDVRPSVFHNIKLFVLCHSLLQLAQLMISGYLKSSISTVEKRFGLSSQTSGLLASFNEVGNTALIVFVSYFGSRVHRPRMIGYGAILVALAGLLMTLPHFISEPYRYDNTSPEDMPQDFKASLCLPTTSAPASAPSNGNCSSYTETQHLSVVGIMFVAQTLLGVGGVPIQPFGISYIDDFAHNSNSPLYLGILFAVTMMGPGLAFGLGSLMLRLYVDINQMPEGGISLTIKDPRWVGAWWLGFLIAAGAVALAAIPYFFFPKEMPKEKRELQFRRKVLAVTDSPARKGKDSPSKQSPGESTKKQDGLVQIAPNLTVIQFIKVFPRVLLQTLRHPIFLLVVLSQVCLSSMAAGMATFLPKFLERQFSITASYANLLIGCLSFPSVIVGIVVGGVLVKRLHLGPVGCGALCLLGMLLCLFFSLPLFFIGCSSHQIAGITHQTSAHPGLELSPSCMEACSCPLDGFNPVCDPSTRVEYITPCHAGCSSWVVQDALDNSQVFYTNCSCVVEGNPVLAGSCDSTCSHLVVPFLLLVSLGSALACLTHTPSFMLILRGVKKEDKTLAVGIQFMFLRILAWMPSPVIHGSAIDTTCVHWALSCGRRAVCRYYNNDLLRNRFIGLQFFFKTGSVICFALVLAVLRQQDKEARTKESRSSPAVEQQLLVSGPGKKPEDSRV

Bile salt export pump = Bile salt export pump (Homo sapiens, UniProt O95342); assay: Inhibitors of transporters of clinical importance in the absorption and disposition of drugs, BSEP
[4] = target: T4, Solute carrier organic anion transporter family member 1B3 (Homo sapiens, UniProt Q9NPD5); assay: Inhibitors of transporters of clinical importance in the absorption and disposition of drugs, OATP1B3
T4 sequence (Q9NPD5 whole entry): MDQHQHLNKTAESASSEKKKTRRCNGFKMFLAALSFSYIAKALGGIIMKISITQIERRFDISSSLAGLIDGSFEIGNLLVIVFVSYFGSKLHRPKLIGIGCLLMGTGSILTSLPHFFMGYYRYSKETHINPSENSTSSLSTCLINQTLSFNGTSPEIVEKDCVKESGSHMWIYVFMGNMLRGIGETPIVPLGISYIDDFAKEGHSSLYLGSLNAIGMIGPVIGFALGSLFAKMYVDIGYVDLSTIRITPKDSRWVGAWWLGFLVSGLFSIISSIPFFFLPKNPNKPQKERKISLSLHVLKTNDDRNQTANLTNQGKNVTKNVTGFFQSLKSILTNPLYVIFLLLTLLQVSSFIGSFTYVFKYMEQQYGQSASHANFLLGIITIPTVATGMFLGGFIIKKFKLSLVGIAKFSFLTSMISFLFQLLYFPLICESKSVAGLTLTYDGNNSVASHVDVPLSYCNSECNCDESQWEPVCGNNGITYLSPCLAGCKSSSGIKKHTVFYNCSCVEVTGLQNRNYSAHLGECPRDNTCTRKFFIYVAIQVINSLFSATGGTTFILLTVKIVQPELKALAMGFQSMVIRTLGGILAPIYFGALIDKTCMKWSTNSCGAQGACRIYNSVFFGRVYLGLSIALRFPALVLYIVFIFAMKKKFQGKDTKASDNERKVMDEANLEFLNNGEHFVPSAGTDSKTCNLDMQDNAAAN

[5] = target: T5, Solute carrier family 15 member 1 (Homo sapiens, UniProt P46059); assay: Inhibitors of transporters of clinical importance in the absorption and disposition of drugs, PEPT1
T5 sequence (P46059 whole entry): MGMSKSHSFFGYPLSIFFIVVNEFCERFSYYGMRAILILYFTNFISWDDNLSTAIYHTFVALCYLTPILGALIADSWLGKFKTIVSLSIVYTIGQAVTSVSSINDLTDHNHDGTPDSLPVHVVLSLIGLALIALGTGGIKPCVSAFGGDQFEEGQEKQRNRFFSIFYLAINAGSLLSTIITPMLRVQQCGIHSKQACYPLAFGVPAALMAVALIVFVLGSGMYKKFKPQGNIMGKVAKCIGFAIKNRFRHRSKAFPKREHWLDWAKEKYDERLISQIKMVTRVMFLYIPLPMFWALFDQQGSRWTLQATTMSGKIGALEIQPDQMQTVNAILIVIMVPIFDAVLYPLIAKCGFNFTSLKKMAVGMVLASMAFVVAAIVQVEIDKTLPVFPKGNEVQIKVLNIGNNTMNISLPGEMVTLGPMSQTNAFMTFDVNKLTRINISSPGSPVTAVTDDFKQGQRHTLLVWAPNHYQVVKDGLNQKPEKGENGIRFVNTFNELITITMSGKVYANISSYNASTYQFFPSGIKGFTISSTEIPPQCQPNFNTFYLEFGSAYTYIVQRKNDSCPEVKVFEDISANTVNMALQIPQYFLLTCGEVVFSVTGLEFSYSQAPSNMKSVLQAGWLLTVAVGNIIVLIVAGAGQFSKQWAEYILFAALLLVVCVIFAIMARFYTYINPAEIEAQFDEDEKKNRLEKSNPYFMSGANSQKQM

Measured: Activity

Chain of Bile salt export pump (O95342 whole entry): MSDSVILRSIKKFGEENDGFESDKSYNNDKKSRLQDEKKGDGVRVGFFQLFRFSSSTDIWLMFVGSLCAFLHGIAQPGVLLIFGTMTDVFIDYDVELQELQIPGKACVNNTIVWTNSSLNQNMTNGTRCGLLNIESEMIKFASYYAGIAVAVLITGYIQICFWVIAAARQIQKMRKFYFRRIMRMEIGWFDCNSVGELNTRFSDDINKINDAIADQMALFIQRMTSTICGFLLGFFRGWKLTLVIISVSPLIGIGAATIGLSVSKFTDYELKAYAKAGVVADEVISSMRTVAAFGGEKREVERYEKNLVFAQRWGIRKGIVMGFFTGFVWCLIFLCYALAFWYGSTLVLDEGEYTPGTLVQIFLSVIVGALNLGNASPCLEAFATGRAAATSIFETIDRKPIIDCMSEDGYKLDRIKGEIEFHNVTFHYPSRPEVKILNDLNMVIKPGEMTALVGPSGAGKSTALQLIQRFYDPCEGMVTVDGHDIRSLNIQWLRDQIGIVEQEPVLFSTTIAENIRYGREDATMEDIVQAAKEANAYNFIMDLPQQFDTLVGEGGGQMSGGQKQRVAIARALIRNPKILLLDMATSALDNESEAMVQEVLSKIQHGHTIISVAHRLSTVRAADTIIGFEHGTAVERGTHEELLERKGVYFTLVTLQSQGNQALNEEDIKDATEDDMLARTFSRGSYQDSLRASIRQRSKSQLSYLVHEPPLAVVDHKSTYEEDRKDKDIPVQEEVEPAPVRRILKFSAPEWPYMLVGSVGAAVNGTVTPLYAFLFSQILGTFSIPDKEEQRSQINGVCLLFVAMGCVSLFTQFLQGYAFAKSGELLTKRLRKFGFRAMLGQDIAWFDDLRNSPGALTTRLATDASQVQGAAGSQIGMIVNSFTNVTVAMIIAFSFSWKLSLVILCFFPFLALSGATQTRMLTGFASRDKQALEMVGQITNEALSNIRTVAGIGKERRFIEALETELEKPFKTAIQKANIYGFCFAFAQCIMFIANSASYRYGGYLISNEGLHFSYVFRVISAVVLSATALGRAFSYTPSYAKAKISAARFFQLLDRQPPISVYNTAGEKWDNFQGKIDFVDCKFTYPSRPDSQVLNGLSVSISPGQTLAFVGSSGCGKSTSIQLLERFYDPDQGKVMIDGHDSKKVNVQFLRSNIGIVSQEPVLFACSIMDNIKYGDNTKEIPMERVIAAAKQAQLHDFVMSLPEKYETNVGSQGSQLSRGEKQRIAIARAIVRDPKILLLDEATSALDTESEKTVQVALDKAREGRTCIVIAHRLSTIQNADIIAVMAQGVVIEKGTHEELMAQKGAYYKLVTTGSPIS

CO[C@H]1/C=C/O[C@@]2(C)Oc3c(C)c(O)c4c(O)c(c(/C=N/N5CCN(C)CC5)c(O)c4c3C2=O)NC(=O)/C(C)=C\C=C\[C@H](C)[C@H](O)[C@@H](C)[C@@H](O)[C@@H](C)[C@H](OC(C)=O)[C@@H]1C [RIFAMPIN]
not listed: [5]
transporter inhibitor: all other assays above

NCC(=O)N1CCC[C@H]1C(=O)O [GLYCYL PROLINE] (H-Gly-Pro-OH)
transporter inhibitor: [5]
